Results as given in ChEMBL document CHEMBL1146545, “Ainigmaptilones, sesquiterpenes from the Antarctic gorgonian coral Ainigmaptilon antarcticus” (J Nat Prod, 2003).
Activity calls are given as the source filed them. No cut-off for these calls is given here.

Test system: Antarctic bacterium
Experiment: Antimicrobial activity against Antarctic bacteria at 5 mg/mL
Assay type: functional, organism-based

C=C(C)[C@@H]1CC[C@]2(CO)C=CC(=O)[C@@H](C)[C@H]2C1
Activity: Active
